Test results reported in patent US20250009745A1, “CDK INHIBITOR” (SHANGHAI QILU PHARMACEUTICAL RESEARCH AND DEVELOPMENT …, priority 2021, published 2025).

Tests used:
Experiment in all cases: CDK enzymology experiment in vitro, capillary mobility shift assay (MSA)
Format in all cases: biochemical
CDK6 = target: T1, CDK6 (Homo sapiens, UniProt Q00534); conditions: read-out: CDK6 (nM) inhibitory IC50
T1 construct: purchased Carna Company
Protocol: (§1) CDK1/CDK2/CDK4/CDK6/CDK7/CDK9 were purchased from Carna Company; Carliper substrate CTD3/substrate 18/substrate 8 were purchased from Gil Biochemical Company; Dinaciclib/Palbociclib were purchased from Selleckchem Company; DMSO was purchased from Sigma Company; 384-well plates were purchased from Corning Company.
• (1) Preparation of 1×Kinase buffer. • (2) Preparation of compound concentration gradient: Test concentration of the test compound was started at 1 μM, 10 μM or 30 μM, 3-fold dilution, 10 concentrations, detected in duplicate. […] Liquid handler Echo 550 was used to transfer 250 nL of 100-fold final concentration of the compound to the target plate 384-well plate. […] The 384-well plate was centrifuged at 1000 rpm for 30 seconds, and shaken to mix uniformly. • (10) The conversion rate was read with Caliper EZ Reader.
(§2) Where, conversion %_sample is the readings of conversion rate of the sample; conversion %_min: the average value of negative control wells, representing the readings of conversion rate of wells without enzyme activity; conversion %_max: the average value of positive control wells, representing the readings of conversion rate of wells without compound inhibition.
(§3) Taking the log value of the concentration as the X-axis, and the percentage inhibition rate as the Y-axis, the dose-effect curve was fitted using the log(inhibitor) vs. response—Variable slope of the analysis software GraphPad Prism 5 so as to obtain the IC50 value of each compound on the enzyme activity.
(§4) Y=Bottom+(Top−Bottom)/(1+10^((Log IC50−X)*HillSlope)). Calculation formula: […]

CDK4 = target: T2, CDK4 (Homo sapiens, UniProt P11802); conditions: read-out: CDK4 (nM) inhibitory IC50
T2 construct: purchased Carna Company
T2 sequence (P11802 whole entry): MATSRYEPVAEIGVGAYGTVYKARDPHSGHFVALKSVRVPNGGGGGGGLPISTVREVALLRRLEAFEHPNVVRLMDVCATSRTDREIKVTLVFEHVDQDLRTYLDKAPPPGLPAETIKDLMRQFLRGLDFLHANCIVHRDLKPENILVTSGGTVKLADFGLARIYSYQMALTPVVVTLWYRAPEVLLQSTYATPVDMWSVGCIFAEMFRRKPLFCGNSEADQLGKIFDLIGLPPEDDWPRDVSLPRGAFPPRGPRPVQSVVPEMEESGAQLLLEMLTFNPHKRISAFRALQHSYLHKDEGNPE
T2 sequence (P30281 whole entry partner): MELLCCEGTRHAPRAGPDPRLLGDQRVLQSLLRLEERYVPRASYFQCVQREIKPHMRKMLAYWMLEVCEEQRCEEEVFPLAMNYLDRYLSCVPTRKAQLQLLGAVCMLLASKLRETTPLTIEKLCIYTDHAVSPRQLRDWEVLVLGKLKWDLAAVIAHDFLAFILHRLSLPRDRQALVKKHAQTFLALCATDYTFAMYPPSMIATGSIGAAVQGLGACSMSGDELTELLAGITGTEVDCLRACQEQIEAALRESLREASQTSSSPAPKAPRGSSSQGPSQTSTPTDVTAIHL
Protocol: as §1
(§5) • (1) Preparation of 1×Kinase buffer. • (2) Preparation of compound concentration gradient: Test concentration of the test compound was started at 1 μM, 10 μM or 30 μM, 3-fold dilution, 10 concentrations, detected in duplicate. The test compound was diluted to a 100-fold final concentration with 100% DMSO solution in a 384 source plate. Liquid handler Echo 550 was used to transfer 250 nL of 100-fold final concentration of the compound to the target plate 384-well plate. […] The 384-well plate was centrifuged at 1000 rpm for 30 seconds, and shaken to mix uniformly. • (10) The conversion rate was read with Caliper EZ Reader.
as §2, §3, §4

CDK2 = target: T3, CDK2 (Homo sapiens, UniProt P24941); conditions: read-out: CDK2 (nM) inhibitory IC50
T3 construct: purchased Carna Company
Protocol: as §1, §5, §2, §3, §4

T1 sequence (Q00534 whole entry): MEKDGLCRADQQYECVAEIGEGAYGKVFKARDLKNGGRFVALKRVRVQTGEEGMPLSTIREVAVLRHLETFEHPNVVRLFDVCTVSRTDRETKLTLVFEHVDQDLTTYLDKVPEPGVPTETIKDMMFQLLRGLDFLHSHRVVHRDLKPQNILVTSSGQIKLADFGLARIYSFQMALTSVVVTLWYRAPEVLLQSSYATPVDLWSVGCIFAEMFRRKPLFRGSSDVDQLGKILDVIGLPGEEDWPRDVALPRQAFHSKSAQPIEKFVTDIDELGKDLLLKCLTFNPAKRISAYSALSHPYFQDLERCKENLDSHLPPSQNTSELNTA
T1 sequence (P30281 whole entry partner): as the sequence (P30281 whole entry partner) above

Row | SMILES | IC50 (CDK6) [nM] | IC50 (CDK4) [nM] | IC50 (CDK2) [nM]
1 | Cn1cc(S(=O)(=O)N2CCC(Nc3ncc(C#N)c(N(C4CCCC4)C4CC4)n3)CC2)cn1 [Compound 82] | 0.5 to 2.5 | 2.5 to 10 | 0.5 to 2.5
2 | C[C@@H]1CN(c2ccc(S(=O)(=O)N3CCC(Nc4ncc(C(F)(F)F)c(O[C@H]5CCOC5)n4)CC3)cc2)C[C@@H](C)N1 [Compound 208] | 0.5 to 2.5 | 2.5 to 10 | 0.5 to 2.5
3 | CN1CCN(c2ccc(S(=O)(=O)N3CCC(Nc4ncc(C#N)c(NC5CCCC5)n4)CC3)cc2)CC1 [Example 18, 4-(Cyclopentylamino)-2-((1-((4-(4-methylpiperazin-1-yl)phenyl)sulfonyl)piperidin-4-yl)amino)pyrimidine-5-carbonitrile] | 0.5 to 2.5 | 0.5 to 2.5 | 0.5 to 2.5
4 | O=S(=O)(c1ccc(N2C3CCC2CNC3)nc1)N1CCC(Nc2ncc(C(F)(F)F)c(O[C@H]3CCOC3)n2)CC1 [Compound 183] | 0.5 to 2.5 | 0.5 to 2.5 | < 0.5
5 | Cc1cc(S(=O)(=O)N2CCC(Nc3ncc(C(F)(F)F)c(O[C@H]4CCOC4)n3)CC2)ccc1N1CCNCC1 [Compound 171] | 0.5 to 2.5 | 0.5 to 2.5 | < 0.5
6 | Cn1cc(-c2ccc(S(=O)(=O)N3CCC(Nc4ncc(C#N)c(N[C@H]5CC[C@H](O)C5)n4)CC3)cc2)cn1 (single isomer, unassigned) [Compound 83] | 0.5 to 2.5 | 0.5 to 2.5 | 0.5 to 2.5
7 | N#Cc1cnc(NC2CCN(S(=O)(=O)c3ccc(C4CCNCC4)cc3)CC2)nc1NC1CCCC1(F)F (stereo not drawn) [Compound 138] | 0.5 to 2.5 | 0.5 to 2.5 | 0.5 to 2.5
8 | CC(C)S(=O)(=O)N1CCC(Nc2ncc(C#N)c(NC3CCCC3)n2)CC1 [Compound 29] | – | 10 to 50 | 10 to 50
9 | Cn1cc(S(=O)(=O)N2CCC(Nc3ncc(C#N)c(NC(C)(C)C)n3)CC2)cn1 [Compound 42] | – | 10 to 50 | 10 to 50
10 | Cn1cc(S(=O)(=O)N2CCC(Nc3ncc(C#N)c(N[C@@H]4CCC[C@@]4(C)O)n3)CC2)cn1 (racemic) [Example 19] | – | 10 to 50 | 2.5 to 10
11 | O=S(=O)(c1ccccn1)N1CCC(Nc2ncc(C(F)(F)F)c(O[C@H]3CCOC3)n2)CC1 [Compound 109] | – | 10 to 50 | 0.5 to 2.5
12 | NC(=O)Cn1cc(S(=O)(=O)N2CCC(Nc3ncc(C(F)(F)F)c(O[C@H]4CCOC4)n3)CC2)cn1 [Compound 134] | – | 10 to 50 | < 0.5
13 | CN1CCN(Cc2ccc(S(=O)(=O)N3CCC(Nc4ncc(C#N)c(NC5CCCC5)n4)CC3)cc2)CC1 [Example 22, 4-(Cyclopentylamino)-2-((1-((4-((4-methylpiperazin-1-yl)methyl)phenyl)sulfonyl)piperidin-4-yl)amino)pyrimidine-5-carbonitrile] | – | 10 to 50 | 2.5 to 10
14 | CN1CC[C@@H](Nc2nc(NC3CCN(S(=O)(=O)c4cnn(C)c4)CC3)ncc2C#N)C1 [Compound 71] | – | 10 to 50 | 2.5 to 10
15 | CN1CCC(S(=O)(=O)N2CCC(Nc3ncc(C#N)c(NC4CCCC4)n3)CC2)CC1 [Compound 85] | – | 10 to 50 | 2.5 to 10
16 | Cn1cc(-c2ccc(S(=O)(=O)N3CCC(Nc4ncc(C#N)c(N[C@@H]5CCC[C@@H]5O)n4)CC3)cc2)cn1 [Compound 61] | – | 2.5 to 10 | 0.5 to 2.5
17 | CC(C)(O)c1ccc(S(=O)(=O)N2CCC(Nc3ncc(C#N)c(NC4CCCC4)n3)CC2)cc1 [Example 24, 4-(Cyclopentylamino)-2-((1-((4-(2-hydroxypropan-2-yl)phenyl)sulfonyl)piperidin-4-yl)amino)pyrimidine-5-carbonitrile] | – | 2.5 to 10 | 0.5 to 2.5
18 | O=S(=O)(c1cnn(C2CCOCC2)c1)N1CCC(Nc2ncc(C(F)(F)F)c(O[C@H]3CCOC3)n2)CC1 [Compound 108] | – | 2.5 to 10 | 0.5 to 2.5
19 | CC(C)n1cc(S(=O)(=O)N2CCC(Nc3ncc(C(F)(F)F)c(O[C@H]4CCOC4)n3)CC2)cn1 [Compound 110] | – | 10 to 50 | 0.5 to 2.5
20 | Cn1cc(S(=O)(=O)N2CCC(Nc3ncc(C#N)c(O[C@@H]4CCC[C@@H]4O)n3)CC2)cn1 (relative stereo) [Compound 65] | – | 10 to 50 | 2.5 to 10
21 | Cn1cc(S(=O)(=O)N2CCC(Nc3ncc(C#N)c(NC4CCOCC4)n3)CC2)cn1 [Compound 81] | – | 100 to 1000 | 10 to 50
22 | Cn1cc(S(=O)(=O)N2CCC(Nc3ncc(C#N)c([S+]([O-])C4CCCC4)n3)CC2)cn1 (stereo not drawn) [Compound 98] | – | 10 to 50 | < 0.5

Row | SMILES | IC50 (CDK6) [nM] | IC50 (CDK4) [nM] | IC50 (CDK2) [nM]
23 | Cn1cc(S(=O)(=O)N2CCC(Nc3ncc(C#N)c(N[C@H]4CCC[C@]4(C)O)n3)CC2)cn1 (single isomer, unassigned) [Example 21] | – | 10 to 50 | 2.5 to 10
24 | Cn1cc(S(=O)(=O)N2CCC(Nc3cc(N[C@H]4CCOC4)c(C#N)cn3)CC2)cn1 [Compound 164] | – | 50 to 100 | 10 to 50
25 | Cn1cc(S(=O)(=O)N2CCC(Nc3ncc(C#N)c(N[C@H]4CC[C@@H](O)C4)n3)CC2)cn1 (single isomer, unassigned) [Example 12] | – | 10 to 50 | 2.5 to 10
26 | CN1CC[C@@H](Oc2nc(NC3CCN(S(=O)(=O)c4cnn(C)c4)CC3)ncc2C#N)C1 [Compound 73] | – | 100 to 1000 | 50 to 100
27 | O=S(=O)(c1ccc(C2=CCNCC2)cc1)N1CCC(Nc2ncc(C(F)(F)F)c(N[C@@H]3CCC[C@H]3O)n2)CC1 [Compound 102] | – | 2.5 to 10 | 0.5 to 2.5
28 | CO[C@@H]1CCC[C@H]1Nc1nc(NC2CCN(S(=O)(=O)c3cnn(C)c3)CC2)ncc1C#N [Example 14] | – | 100 to 1000 | 10 to 50
29 | Cn1cc(S(=O)(=O)N2CCC(Nc3ncc(C#N)c(O[C@@H]4CCOC4)n3)CC2)cn1 [Compound 89] | – | 50 to 100 | 10 to 50
30 | Cn1cc(S(=O)(=O)N2CCC(Nc3ncc(C#N)c(NC4COC4)n3)CC2)cn1 [Compound 80] | – | 100 to 1000 | 2.5 to 10
31 | Cn1cc(S(=O)(=O)N2CCC(Nc3ncc(C#N)c(SC4CCCC4)n3)CC2)cn1 [Compound 96] | – | 2.5 to 10 | 0.5 to 2.5
32 | CC(C)(O)Cn1cc(S(=O)(=O)N2CCC(Nc3ncc(C(F)(F)F)c(O[C@H]4CCOC4)n3)CC2)cn1 [Compound 156] | – | 2.5 to 10 | 0.5 to 2.5
33 | Cn1cc(S(=O)(=O)N2CCC(Nc3ncc(C#N)c(C=C4CCCC4)n3)CC2)cn1 [Example 9, 4-(Cyclopentylidenemethyl)-2-((1-((1-methyl-1H-pyrazol-4-yl)sulfonyl)piperidin-4-yl)amino)pyrimidine-5-carbonitrile] | – | 10 to 50 | 0.5 to 2.5
34 | Cn1cc(S(=O)(=O)N2CCC(Nc3ncc(C#N)c(S(=O)(=O)C4CCCC4)n3)CC2)cn1 [Compound 97] | – | 10 to 50 | 0.5 to 2.5
35 | Cn1cc(S(=O)(=O)N2CCC(Nc3ncc(C#N)c(NC4CCCCC4)n3)CC2)cn1 [Compound 79] | – | 10 to 50 | 2.5 to 10
36 | Cn1cc(S(=O)(=O)N2CCC(Nc3ncc(C#N)c(O[C@H]4CC[C@@H](O)C4)n3)CC2)cn1 (relative stereo) [Compound 58] | – | 10 to 50 | 0.5 to 2.5
37 | Cn1cc(S(=O)(=O)N2CCC(Nc3ncc(C#N)c(O[C@H]4CC[C@H](O)C4)n3)CC2)cn1 (relative stereo) [Compound 55] | – | 10 to 50 | 2.5 to 10
38 | C[C@@H](CO)Nc1nc(NC2CCN(S(=O)(=O)c3cnn(C)c3)CC2)ncc1C#N [Compound 69] | – | 100 to 1000 | 10 to 50
39 | Cn1cc(S(=O)(=O)N2CCC(Nc3ncc(C#N)c(N[C@H]4C[C@@H](O)C4)n3)CC2)cn1 [Compound 77] | – | 10 to 50 | 2.5 to 10
40 | Cn1ccc(S(=O)(=O)N2CCC(Nc3ncc(C#N)c(NC4CCCC4)n3)CC2)n1 [Compound 33] | – | 10 to 50 | 2.5 to 10
41 | Cn1cc(S(=O)(=O)N2CCC(Nc3ncc(C#N)c(NC4CCCC4(F)F)n3)CC2)cn1 (stereo not drawn) [Compound 37] | – | 2.5 to 10 | 2.5 to 10
42 | C[C@H](CO)Nc1nc(NC2CCN(S(=O)(=O)c3cnn(C)c3)CC2)ncc1C#N [Compound 70] | – | 50 to 100 | 10 to 50
43 | O=S(=O)(c1cnn(S(=O)(=O)c2cn[nH]c2)c1)N1CCC(Nc2ncc(C(F)(F)F)c(O[C@H]3CCOC3)n2)CC1 [Example 26, (S)—N-(1-((1-((1H-Pyrazol-4-yl)sulfonyl)-1H-pyrazol-4-yl)sulfonyl)piperidin-4-yl)-4-((tetrahydrofuran-3-yl)oxy)-5-(trifluoromethyl)pyrimidin-2-amine] | – | 2.5 to 10 | < 0.5
